Test results published in US10722480B2, “Agent for controlling cells constituting cancer microenvironment or inflammatory microenvironment” (The University of Tokyo, priority 2015, dated 2020).

What was measured:
[1] = biological target: T1, FROUNT-CCR2 interaction (Homo sapiens, UniProt Q9BW27); assay: HTRF binding inhibition assay, FROUNT-CCR2 interaction
T1 construct: made in house
T1 sequence (Q9BW27 500-656): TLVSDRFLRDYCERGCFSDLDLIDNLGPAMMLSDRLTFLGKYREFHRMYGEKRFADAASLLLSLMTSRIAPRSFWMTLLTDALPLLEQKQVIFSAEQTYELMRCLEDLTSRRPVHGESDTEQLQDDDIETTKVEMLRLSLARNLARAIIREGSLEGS
Method: (§1) For the screening, a compound library containing 131,200 kinds of compounds dissolved in DMSO at a concentration of 10 mM or 2 mM (obtained from Open Innovation Center for Drug Discovery, the University of Tokyo) was used. The HTRF assay was carried out using a 384-well low-dose white microplate (Corning Coaster; catalog number 3676). In each well, 4 μL of a solution of 20 nM GST fusion FROUNT protein (a recombinant polypeptide prepared by fusing GST to aa 500-656 of SEQ ID NO:2), and DMSO or test compounds were mixed with a binding buffer (10 mM HEPES [pH 7.4], 0.2 M potassium fluoride, 10 mM NaCl, 0.1% Tween 20, and 0.5% bovine serum albumin [BSA]), and the plate was incubated at room temperature for 30 minutes. […]. After incubation at room temperature for 20 hours, the HTRF signal was measured at emission wavelengths of 620 nm and 665 nm using a multilabel counter EnVision (PerkinElmer).
(§2) By the same HTRF assay as described above, the abilities of disulfiram to inhibit the FROUNT-CCR2 interaction or the FROUNT-CCR5 interaction were investigated. As the CCR5 pro-C peptide, the 16 residues […] (SEQ ID NO:4) in the C-terminal region of CCR5 was used. As a control, the p53-MDM2 interaction (which is inhibited by an MDM-2-specific inhibitor Nutlin), which is also a helix peptide-protein interaction like the interaction between FROUNT and CCR2 or CCR5 but is not related thereto, was used.

[2] = biological target: T2, FROUNT-CCR5 interaction (Homo sapiens, UniProt Q9BW27); assay: HTRF binding inhibition assay, FROUNT-CCR5 interaction; settings: result in words
T2 construct: made in house
T2 sequence (Q9BW27 500-656): T1 sequence (Q9BW27 500-656)
Method: as §1, §2

[3] = biological target: p53-MDM2 interaction (Homo sapiens, UniProt Q00987); assay: HTRF binding inhibition assay, p53-MDM2 control interaction
Chain of p53-MDM2 interaction (Q00987 whole entry): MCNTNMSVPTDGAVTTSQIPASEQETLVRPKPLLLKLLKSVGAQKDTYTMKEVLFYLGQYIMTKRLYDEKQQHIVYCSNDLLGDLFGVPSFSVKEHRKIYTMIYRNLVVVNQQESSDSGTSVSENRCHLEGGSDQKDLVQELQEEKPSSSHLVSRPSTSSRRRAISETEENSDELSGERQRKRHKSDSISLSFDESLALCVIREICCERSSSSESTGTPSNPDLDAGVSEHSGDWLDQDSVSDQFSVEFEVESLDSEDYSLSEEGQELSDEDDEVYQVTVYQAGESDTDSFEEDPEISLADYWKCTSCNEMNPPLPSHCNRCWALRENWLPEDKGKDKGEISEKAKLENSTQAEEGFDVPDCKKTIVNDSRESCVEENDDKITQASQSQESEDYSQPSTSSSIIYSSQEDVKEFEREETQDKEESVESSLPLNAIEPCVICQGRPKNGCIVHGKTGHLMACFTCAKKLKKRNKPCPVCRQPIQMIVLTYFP
From the text: as §2

[4] = test system: B16F10 melanoma cells; assay: WST-1 proliferation assay, B16F10 melanoma cells; format: cell-based; settings: WST-1, 48 hours
Method: The cytotoxicity of inhibitors was tested by using LDH Cytotoxicity Detection Kit (TaKaRa) according to the manufacturer's instructions. Briefly, tumor cells were cultured in the presence or absence of an agent (disulfiram or 5FU) for 72 hours, and the culture supernatant was then collected and tested for the concentration of lactate dehydrogenase released from damaged cells. For measurement of cell proliferation, cells were incubated in a plate well together with an inhibitor for 48 hours. During the last 30 minutes, WST-1 (Dojindo Laboratories) was added to the culture liquid, and the absorbance of each well was measured at 450 nm versus 650 nm reference using EnVision (PerkinElmer) to detect the formazan level.

[5] = test system: infiltrating cells in the peritoneum (macrophages, neutrophils); assay: In vivo chemotaxis assay (thioglycolate peritonitis); design: species or system mouse; settings: wild-type mice
Method: Peritonitis was induced by intraperitoneal administration of 2 mL of 4% thioglycolate medium (Difco) to each of FNT^flox/flox mice and FNT-cKO mice. Infiltrating cells in the peritoneum were collected by injecting 5 mL of ice-cold PBS into the abdominal cavity and giving a gentle massage. The collected cells was washed with PBS containing 0.1% FBS, and then subjected to flow cytometry analysis to investigate the cell number and the cell populations. The same treatment as in the above-described section 8 was carried out on wild-type mice to induce peritonitis, and infiltrating cells in the peritoneum were collected. After washing the collected cells, flow cytometry analysis was carried out to investigate the cell number and the cell populations. For evaluation of disulfiram, disulfiram was dissolved in DMSO, and then diluted in 2% Tween 80-containing physiological saline to each concentration shown in the figure. Each resulting disulfiram solution was administered to mice 1 day before and 30 minutes before the administration of thioglycolate.

[6] = test system: macrophages in tumor sites; assay: Macrophage accumulation in tumor sites (lung metastasis model); format: in vivo, mouse; settings: wild-type mice, vs solvent
Method: Lung cells of the lung metastasis model of wild-type mice described in the section 4 above or lung cells of the lung metastasis model of FNT-cKO mice and FNT^flox/flox mice described in the section 7(2) above were obtained from the right lower lobe by digestion with collagenase and DNase. The cells were washed with PBS supplemented with 2% fetal bovine serum, resuspended, and filtered through a 70-μm strainer. The Fc receptor was blocked by incubation with an anti-mouse CD16/32 antibody (BD biosciences), and thereafter the cells were stained with a fluorescently labeled antibody. Anti-mouse CD11b-Brilliant Violet 510, anti-mouse Ly6C-APC-Cy7, and anti-mouse Ly6G-Alexa Fluor 700 were purchased from Biolegend. The stained cells were analyzed using the Gallios flow cytometer (Beckman coulter). Each mouse was perfused with PBS, and the left lung was isolated. Optimal Cutting Temperature Compound (OCT) (Sakura Finetek) was injected from the trachea to embed the lung in OCT, and the lung was then frozen in liquid nitrogen. Fresh frozen sections with a thickness of 8 μm were prepared, and fixed with 4% paraformaldehyde-PBS. […] Fluorescence Images were obtained with an SP5 confocal microscope (Leica Microsystems).

[7] = test system: B16 melanoma cells; assay: Combined use with anti-PD-1 antibody, B16 tumor-bearing model; format: in vivo, mouse; settings: DSF in feed from Day 4, anti-PD-1 antibody 0.2 mg i.p. x4
Method: To provide an example of combined use of an anticancer drug and disulfiram (DSF), the effect of combined use of an anti-PD-1 antibody, which is an anticancer drug targeting an immune checkpoint molecule, and DSF was studied using an LLC tumor-bearing model and a B16 tumor-bearing model. The B16 tumor-bearing model was prepared by transplanting 5×10^5 B16 melanoma cells to the right abdomen of each of wild-type C57BL/6 mice. Preparation of the LLC tumor-bearing model was carried out in the same manner as in the above-described section 3. A feed supplemented with DSF was provided in the same manner as in the above-described section 3.
The day of the transplantation of the tumor cells to the mice was defined as Day 0. From Day 4, the mice were fed with the feed supplemented with DSF or a control feed every day during the experimental period. An anti-PD-1 antibody (J43, manufactured by BioXcell) was intraperitoneally administered once at a dose of 0.2 mg on each of Day 5, Day 8, Day 14, and Day 18 (four times in total). To provide a control for the antibody administration, PBS was intraperitoneally administered. The tumor size was measured using a caliper twice a week, and the tumor volume was calculated.

## CCN(CC)C(=S)SSC(=S)N(CC)CC [DSF, disulfiram]
[1]
  inhibitory action against FROUNT-CCR2 relative to p53-MDM2: about 100 times
[1]; HTRF, result in words
  inhibition of FROUNT-CCR2 interaction: selectively inhibited
[1]; HTRF, read-out: FROUNT inhibition (IC50 against FROUNT-CCR2)
  IC50: 42 nM
[2]
  inhibition of FROUNT-CCR5 interaction: selectively inhibited
[3]; p53-MDM2 control interaction
  IC50: > 1000 nM
[3]; result in words
  inhibition of p53-MDM2 interaction: did not inhibit
[4]
  growth-inhibiting action on B16F10 melanoma cells: did not show any action
[5]
  infiltration of macrophages into peritoneal inflammatory sites: reduced
  infiltration of neutrophils into peritoneal inflammatory sites: not influenced
[6]
  accumulation of macrophages in tumor sites: reduced
[7]
  inhibitory effect on cancer hyperplasia (tumor volume): not observed at a significant level
